According to PubChem BioAssay (NCI):
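The compound was tested at five concentrations on cells cultured in 96-well plates, with a 48-hour exposure period. GI50 = concentration required for 50% inhibition of growth. TGI marks complete inhibition of growth.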

Experiments:
Test in all cases: DTP human tumour cell line panel, 48 h
HCT-15 colon = tested on: HCT-15 colon
IGROV1 ovarian = tested on: IGROV1 ovarian
EKVX NSCLC = tested on: EKVX NSCLC
NCI-H460 lung = tested on: NCI-H460 lung
786-0 renal = tested on: 786-0 renal
KM12 colon = tested on: KM12 colon
SNB-75 CNS = tested on: SNB-75 CNS
NCI-H226 lung = tested on: NCI-H226 lung
HL-60(TB) leukemia = tested on: HL-60(TB) leukemia
SR leukemia = tested on: SR leukemia
NCI/ADR-RES ovarian = tested on: NCI/ADR-RES ovarian
DU-145 prostate = tested on: DU-145 prostate
RXF 393 renal = tested on: RXF 393 renal
SF-268 CNS = tested on: SF-268 CNS
OVCAR-5 ovarian = tested on: OVCAR-5 ovarian
PC-3 prostate = tested on: PC-3 prostate
MCF7 breast = tested on: MCF7 breast
OVCAR-8 ovarian = tested on: OVCAR-8 ovarian
UACC-257 melanoma = tested on: UACC-257 melanoma
SK-MEL-28 melanoma = tested on: SK-MEL-28 melanoma
BT-549 breast = tested on: BT-549 breast
MDA-MB-435 = tested on: MDA-MB-435
OVCAR-4 ovarian = tested on: OVCAR-4 ovarian
COLO 205 colon = tested on: COLO 205 colon
SN12C renal = tested on: SN12C renal
OVCAR-3 ovarian = tested on: OVCAR-3 ovarian
NCI-H522 lung = tested on: NCI-H522 lung
HT29 colon = tested on: HT29 colon
ACHN renal = tested on: ACHN renal
SF-539 CNS = tested on: SF-539 CNS
UACC-62 melanoma = tested on: UACC-62 melanoma
SF-295 CNS = tested on: SF-295 CNS
NCI-H23 lung = tested on: NCI-H23 lung
UO-31 renal = tested on: UO-31 renal
A549 NSCLC = tested on: A549 NSCLC
SW-620 colon = tested on: SW-620 colon
A498 renal = tested on: A498 renal
K-562 leukemia = tested on: K-562 leukemia
RPMI-8226 leukemia = tested on: RPMI-8226 leukemia
HCT-116 colon = tested on: HCT-116 colon
U251 CNS = tested on: U251 CNS
SK-MEL-2 melanoma = tested on: SK-MEL-2 melanoma
LOX IMVI melanoma = tested on: LOX IMVI melanoma
SK-MEL-5 melanoma = tested on: SK-MEL-5 melanoma
SNB-19 CNS = tested on: SNB-19 CNS
CAKI-1 renal = tested on: CAKI-1 renal
MDA-MB-231 breast = tested on: MDA-MB-231 breast
HS 578T breast = tested on: HS 578T breast
TK-10 renal = tested on: TK-10 renal
MOLT-4 leukemia = tested on: MOLT-4 leukemia
M14 melanoma = tested on: M14 melanoma

## COc1c(N2CCN(CN3C(=O)C(=O)c4ccccc43)C(C)C2)c(F)cc2c(=O)c(C(=O)O)cn(C3CC3)c12 (configuration not stated)
HCT-15 colon
  GI50: 55.8 µM
  TGI: > 100 µM
IGROV1 ovarian
  GI50: > 100 µM
  TGI: > 100 µM
EKVX NSCLC
  GI50: > 100 µM
  TGI: > 100 µM
NCI-H460 lung
  GI50: 43.4 µM
  TGI: > 100 µM
786-0 renal
  GI50: > 100 µM
  TGI: > 100 µM
KM12 colon
  GI50: 76.2 µM
  TGI: > 100 µM
SNB-75 CNS
  GI50: > 100 µM
  TGI: > 100 µM
NCI-H226 lung
  GI50: > 100 µM
  TGI: > 100 µM
HL-60(TB) leukemia
  GI50: > 100 µM
  TGI: > 100 µM
SR leukemia
  GI50: 32.1 µM
  TGI: > 100 µM
NCI/ADR-RES ovarian
  GI50: > 100 µM
  TGI: > 100 µM
DU-145 prostate
  GI50: 49.9 µM
  TGI: > 100 µM
RXF 393 renal
  GI50: > 100 µM
  TGI: > 100 µM
SF-268 CNS
  GI50: 46 µM
  TGI: > 100 µM
OVCAR-5 ovarian
  GI50: 13.6 µM
  TGI: 99.4 µM
PC-3 prostate
  GI50: > 100 µM
  TGI: > 100 µM
MCF7 breast
  GI50: 33.8 µM
  TGI: > 100 µM
OVCAR-8 ovarian
  GI50: > 100 µM
  TGI: > 100 µM
UACC-257 melanoma
  GI50: > 100 µM
  TGI: > 100 µM
SK-MEL-28 melanoma
  GI50: > 100 µM
  TGI: > 100 µM
BT-549 breast
  GI50: > 100 µM
  TGI: > 100 µM
MDA-MB-435
  GI50: 82.3 µM
  TGI: > 100 µM
OVCAR-4 ovarian
  GI50: > 100 µM
  TGI: > 100 µM
COLO 205 colon
  GI50: 66.5 µM
  TGI: > 100 µM
SN12C renal
  GI50: 47.3 µM
  TGI: > 100 µM
OVCAR-3 ovarian
  GI50: 98.7 µM
  TGI: > 100 µM
NCI-H522 lung
  GI50: > 100 µM
  TGI: > 100 µM
HT29 colon
  GI50: 47.3 µM
  TGI: > 100 µM
ACHN renal
  GI50: > 100 µM
  TGI: > 100 µM
SF-539 CNS
  GI50: > 100 µM
  TGI: > 100 µM
UACC-62 melanoma
  GI50: 47.5 µM
  TGI: > 100 µM
SF-295 CNS
  GI50: > 100 µM
  TGI: > 100 µM
NCI-H23 lung
  GI50: > 100 µM
  TGI: > 100 µM
UO-31 renal
  GI50: > 100 µM
  TGI: > 100 µM
A549 NSCLC
  GI50: > 100 µM
  TGI: > 100 µM
SW-620 colon
  GI50: 33.5 µM
  TGI: > 100 µM
A498 renal
  GI50: 33.6 µM
  TGI: > 100 µM
K-562 leukemia
  GI50: 47 µM
  TGI: > 100 µM
RPMI-8226 leukemia
  GI50: 78.7 µM
  TGI: > 100 µM
HCT-116 colon
  GI50: 44.9 µM
  TGI: > 100 µM
U251 CNS
  GI50: > 100 µM
  TGI: > 100 µM
SK-MEL-2 melanoma
  GI50: > 100 µM
  TGI: > 100 µM
LOX IMVI melanoma
  GI50: 71.2 µM
  TGI: > 100 µM
SK-MEL-5 melanoma
  GI50: 35.3 µM
  TGI: > 100 µM
SNB-19 CNS
  GI50: > 100 µM
  TGI: > 100 µM
CAKI-1 renal
  GI50: > 100 µM
  TGI: > 100 µM
MDA-MB-231 breast
  GI50: 53.5 µM
  TGI: > 100 µM
HS 578T breast
  GI50: 91.2 µM
  TGI: > 100 µM
TK-10 renal
  GI50: 6.85 µM
  TGI: 68.7 µM
MOLT-4 leukemia
  GI50: 36.8 µM
  TGI: > 100 µM
M14 melanoma
  GI50: > 100 µM
  TGI: > 100 µM
